e = 2'-O-(2-methoxyethyl) (MOE); d = 2'-deoxy (DNA)
tested on: human growth hormone receptor mRNA; test: Inhibition of human growth hormone receptor mRNA levels by antisense oligonucleotides, quantitative real-time PCR, MCF7 cells; type: cell-based; set-up: concentration or dose not given beside the values; settings: averages from three experiments
Procedure: “Target site” indicates the first (5′-most) nucleotide number on the particular target sequence to which the oligonucleotide binds. “% Inhib” indicates the inhibitory effect on hGHR mRNA levels by quantitative real-time PCR. Data are averages from three experiments in which MCF7 cells were treated with the antisense oligonucleotides.
All oligonucelotides in Table 1 are chimeric oligonucleotides (“gapmers”), 20 nucleotides in length, composed of a central “gap” region consisting of ten 2′-deoxynucleotides, which is flanked on both sides (5′ and 3′ directions) by five-nucleotide “wings”. The wings are composed of 2′-methoxyethyl (2′-MOE) nucleotides. The internucleoside (backbone) linkages are phosphorothioate (P═S) throughout the oligonucleotide. All uracils are 5-methyluracils (^MeU). Typically, the oligonucleotide is synthesized using 2-methoxyethyl modified thymidines not 5-methyluracils. All pyrimidines are C5 methylated (i.e., U, T, C are C5 methylated).

Substance	% INHIB (inhibitory effect on hGHR mRNA levels)
272337 (antisense AAACATAGCCATTCAATGCT; sugars from the 5' end e5 d10 e5, all phosphorothioate, methylation of C not given here) [compound 272337]	39%
272306 (antisense TTAGAAGAATTTGTCTTTAG; sugars from the 5' end e5 d10 e5, all phosphorothioate, methylation of C not given here) [compound 272306]	13%
272343 (antisense AATGCTCTCAAGAATGATGT; sugars from the 5' end e5 d10 e5, all phosphorothioate, methylation of C not given here) [compound 272343]	48%
227489 (antisense TGTTCAGTTGGTCTGTGCTC; sugars from the 5' end e5 d10 e5, all phosphorothioate, methylation of C not given here) [compound 227489]	75%
272335 (antisense AAATACGTAGCTCTTGGGAA; sugars from the 5' end e5 d10 e5, all phosphorothioate, methylation of C not given here) [compound 272335]	47%
272354 (antisense AGTTATGTGACCCTGATTGA; sugars from the 5' end e5 d10 e5, all phosphorothioate, methylation of C not given here) [compound 272354]	65%
272316 (antisense AACTCGCCATAATTTCCAGA; sugars from the 5' end e5 d10 e5, all phosphorothioate, methylation of C not given here) [compound 272316]	64%
227453 (antisense CATAATCAGGGCATTCTTTC; sugars from the 5' end e5 d10 e5, all phosphorothioate, methylation of C not given here) [compound 227453]	52%
272313 (antisense ATTGCGTGGTGCTTCCCATC; sugars from the 5' end e5 d10 e5, all phosphorothioate, methylation of C not given here) [compound 272313]	77%
272332 (antisense CTCTTTGTCAGGCAAGGGCA; sugars from the 5' end e5 d10 e5, all phosphorothioate, methylation of C not given here) [compound 272332]	75%
272345 (antisense CATCTATTACAAATAACATG; sugars from the 5' end e5 d10 e5, all phosphorothioate, methylation of C not given here) [compound 272345]	24%
272305 (antisense TTGTCTTTAGGCCTGGATTA; sugars from the 5' end e5 d10 e5, all phosphorothioate, methylation of C not given here) [compound 272305]	68%
272304 (antisense TGCTAAGGATAGCTGCTGTG; sugars from the 5' end e5 d10 e5, all phosphorothioate, methylation of C not given here) [compound 272304]	48%
227469 (antisense CTTAGAAGTCTGTCTGTGTC; sugars from the 5' end e5 d10 e5, all phosphorothioate, methylation of C not given here) [compound 227469]	63%
272344 (antisense ACACTCAATTCTAGCTTTTC; sugars from the 5' end e5 d10 e5, all phosphorothioate, methylation of C not given here) [compound 272344]	60%
272322 (antisense CTGGCTCATCAATATCTAGC; sugars from the 5' end e5 d10 e5, all phosphorothioate, methylation of C not given here) [compound 272322]	84%
272349 (antisense AGTCTTCCAAACACACAGCT; sugars from the 5' end e5 d10 e5, all phosphorothioate, methylation of C not given here) [compound 272349]	68%
272334 (antisense AAGAAAGGCTAAGGCATGAT; sugars from the 5' end e5 d10 e5, all phosphorothioate, methylation of C not given here) [compound 272334]	61%

Substance	% INHIB (inhibitory effect on hGHR mRNA levels)
272347 (antisense TCTACACTGATGATACTTTA; sugars from the 5' end e5 d10 e5, all phosphorothioate, methylation of C not given here) [compound 272347]	62%
272318 (antisense TCAGCATTTTAATCCTTTGC; sugars from the 5' end e5 d10 e5, all phosphorothioate, methylation of C not given here) [compound 272318]	55%
272356 (antisense ATGGAGGCTGGAGGTTCAAA; sugars from the 5' end e5 d10 e5, all phosphorothioate, methylation of C not given here) [compound 272356]	63%
272342 (antisense TAGTGAGAAAGAAAGTTTCT; sugars from the 5' end e5 d10 e5, all phosphorothioate, methylation of C not given here) [compound 272342]	45%
272315 (antisense CAATGAGTACACTGGAACTG; sugars from the 5' end e5 d10 e5, all phosphorothioate, methylation of C not given here) [compound 272315]	53%
272319 (antisense ATTTTCCTTCCTTGAGGAGA; sugars from the 5' end e5 d10 e5, all phosphorothioate, methylation of C not given here) [compound 272319]	67%
272359 (antisense TCCAAATATTCTGGTACTTT; sugars from the 5' end e5 d10 e5, all phosphorothioate, methylation of C not given here) [compound 272359]	72%
227482 (antisense TTCTGTGGTGATGTAAATGT; sugars from the 5' end e5 d10 e5, all phosphorothioate, methylation of C not given here) [compound 227482]	53%
272314 (antisense TAGGGTCCATCATTTTCCAT; sugars from the 5' end e5 d10 e5, all phosphorothioate, methylation of C not given here) [compound 272314]	56%
272346 (antisense CTCTTGGAGAAAACCATAGC; sugars from the 5' end e5 d10 e5, all phosphorothioate, methylation of C not given here) [compound 272346]	67%
272308 (antisense GCTGTATGGGTCCTAGGTTC; sugars from the 5' end e5 d10 e5, all phosphorothioate, methylation of C not given here) [compound 272308]	57%
272302 (antisense GATCCATACCTGTAGGACCT; sugars from the 5' end e5 d10 e5, all phosphorothioate, methylation of C not given here) [compound 272302]	60%
272325 (antisense AAGGCATAAGAGATCTGCTT; sugars from the 5' end e5 d10 e5, all phosphorothioate, methylation of C not given here) [compound 272325]	66%
227481 (antisense TGGTGATGTAAATGTCCTCT; sugars from the 5' end e5 d10 e5, all phosphorothioate, methylation of C not given here) [compound 227481]	45%
272326 (antisense ACTCAGCTCCTTCAGTAGGA; sugars from the 5' end e5 d10 e5, all phosphorothioate, methylation of C not given here) [compound 272326]	77%
272324 (antisense TATGTCATTGGCATTGAAAT; sugars from the 5' end e5 d10 e5, all phosphorothioate, methylation of C not given here) [compound 272324]	53%
272303 (antisense CCAGAGATCCATACCTGTAG; sugars from the 5' end e5 d10 e5, all phosphorothioate, methylation of C not given here) [compound 272303]	55%
272310 (antisense TTTCATCCACTGTACCACCA; sugars from the 5' end e5 d10 e5, all phosphorothioate, methylation of C not given here) [compound 272310]	76%
